# Measured values reported in patent publication US8563542B2 (Cyclacel Limited, priority 2007, dated 2013).
# Target: PLK1 (Homo sapiens, UniProt P53350)
# Test: PLK1 protein kinase assay (CDC25C phosphorylation, [γ-32P]-ATP)
# Assay type: biochemical
# Conditions: Table 2, PLK1 IC50; class symbols; read-out: PLK1 IC50
# Sequence of PLK1 (P53350 whole entry): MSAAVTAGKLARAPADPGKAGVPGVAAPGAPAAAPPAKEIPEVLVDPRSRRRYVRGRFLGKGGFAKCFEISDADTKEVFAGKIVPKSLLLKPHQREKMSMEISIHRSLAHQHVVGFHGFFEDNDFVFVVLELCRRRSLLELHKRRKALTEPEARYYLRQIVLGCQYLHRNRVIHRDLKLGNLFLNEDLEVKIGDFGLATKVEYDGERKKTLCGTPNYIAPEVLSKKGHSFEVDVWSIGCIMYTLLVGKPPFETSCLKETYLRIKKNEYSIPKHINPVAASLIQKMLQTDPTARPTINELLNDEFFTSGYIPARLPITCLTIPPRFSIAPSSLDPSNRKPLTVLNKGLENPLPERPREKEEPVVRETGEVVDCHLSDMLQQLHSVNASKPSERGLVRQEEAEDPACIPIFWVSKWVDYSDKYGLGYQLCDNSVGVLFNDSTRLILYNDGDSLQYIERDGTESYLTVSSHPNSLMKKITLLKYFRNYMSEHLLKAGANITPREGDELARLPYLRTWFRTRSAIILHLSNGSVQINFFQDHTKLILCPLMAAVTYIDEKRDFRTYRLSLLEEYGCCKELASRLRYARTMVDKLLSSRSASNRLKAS
row,IC50 [nM],SMILES
1,< 100,"COc1cc(C(=O)NC2CCN(Cc3ccccc3)CC2)ccc1Nc1ncc2c(n1)N(C1CCCC1)CCC(=O)N2C [compound 157, N-(1-Benzyl-piperidin-4-yl)-4-(9-cyclopentyl-5-methyl-6-oxo-6,7,8,9-tetrahydro-5H-pyrimido[4,5-b][1,4]diazepin-2-ylamino)-3-methoxy-benzamide]"
2,< 100,"COc1cc(C(=O)NCC2CCN(C)CC2)ccc1Nc1ncc2c(n1)N(C1CCCC1)CCC(=O)N2C [compound 158, 4-(9-Cyclopentyl-5-methyl-6-oxo-6,7,8,9-tetrahydro-5H-pyrimido[4,5-b][1,4]diazepin-2-ylamino)-3-methoxy-N-(1-methyl-piperidin-4-ylmethyl)-benzamide]"
3,< 1000,"COc1cc(C(=O)NCCCO)ccc1Nc1ncc2c(n1)N(C1CCCC1)CCC(=O)N2C [compound 159, 4-(9-Cyclopentyl-5-methyl-6-oxo-6,7,8,9-tetrahydro-5H-pyrimido[4,5-b][1,4]diazepin-2-ylamino)-N-(3-hydroxy-propyl)-3-methoxy-benzamide]"
4,< 100,"COc1cc(C(=O)NN2CCN(C)CC2)ccc1Nc1ncc2c(n1)N(C1CCCC1)CCC(=O)N2C [compound 160, 4-(9-Cyclopentyl-5-methyl-6-oxo-6,7,8,9-tetrahydro-5H-pyrimido[4,5-b][1,4]diazepin-2-ylamino)-3-methoxy-N-(4-methyl-piperazin-1-yl)-benzamide]"
5,< 100,"COc1cc(C(=O)NC2CC(C)(C)N(C)C(C)(C)C2)ccc1Nc1ncc2c(n1)N(C1CCCC1)CCC(=O)N2C [compound 162, 4-(9-Cyclopentyl-5-methyl-6-oxo-6,7,8,9-tetrahydro-5H-pyrimido[4,5-b][1,4]diazepin-2-ylamino)-3-methoxy-N-(1,2,2,6,6-pentamethyl-piperidin-4-yl)-benzamide]"
6,< 100,"COc1cc(C(=O)NC2CCCN(C)C2)ccc1Nc1ncc2c(n1)N(C1CCCC1)CCC(=O)N2C (centres unmarked) [compound 163, 4-(9-Cyclopentyl-5-methyl-6-oxo-6,7,8,9-tetrahydro-5H-pyrimido[4,5-b][1,4]diazepin-2-ylamino)-3-methoxy-N-(1-methyl-piperidin-3-yl)-benzamide]"
7,< 1000,"CCC(O)CNC(=O)c1ccc(Nc2ncc3c(n2)N(C2CCCC2)CCC(=O)N3C)c(OC)c1 (centres unmarked) [compound 164, 4-(9-Cyclopentyl-5-methyl-6-oxo-6,7,8,9-tetrahydro-5H-pyrimido[4,5-b][1,4]diazepin-2-ylamino)-N-(2-hydroxy-butyl)-3-methoxy-benzamide]"
8,< 100,"COc1cc(C(=O)NCC(C)(C)CN(C)C)ccc1Nc1ncc2c(n1)N(C1CCCC1)CCC(=O)N2C [compound 165, 4-(9-Cyclopentyl-5-methyl-6-oxo-6,7,8,9-tetrahydro-5H-pyrimido[4,5-b][1,4]diazepin-2-ylamino)-N-(3-dimethylamino-2,2-dimethyl-propyl)-3-methoxy-benzamide]"
9,< 1000,"COc1cc(C(=O)NCCO)ccc1Nc1ncc2c(n1)N(C1CCCC1)CCC(=O)N2C [compound 166, 4-(9-Cyclopentyl-5-methyl-6-oxo-6,7,8,9-tetrahydro-5H-pyrimido[4,5-b][1,4]diazepin-2-ylamino)-N-(2-hydroxy-ethyl)-3-methoxy-benzamide]"
10,< 10000,"COc1cc(C(=O)N(CCO)CCO)ccc1Nc1ncc2c(n1)N(C1CCCC1)CCC(=O)N2C [compound 167, 4-(9-Cyclopentyl-5-methyl-6-oxo-6,7,8,9-tetrahydro-5H-pyrimido[4,5-b][1,4]diazepin-2-ylamino)-N,N-bis-(2-hydroxy-ethyl)-3-methoxy-benzamide]"
11,< 1000,"COc1cc(C(=O)NCCOCCO)ccc1Nc1ncc2c(n1)N(C1CCCC1)CCC(=O)N2C [compound 168, 4-(9-Cyclopentyl-5-methyl-6-oxo-6,7,8,9-tetrahydro-5H-pyrimido[4,5-b][1,4]diazepin-2-ylamino)-N-[2-(2-hydroxy-ethoxy)-ethyl]-3-methoxy-benzamide]"
12,< 1000,"CONC(=O)c1ccc(Nc2ncc3c(n2)N(C2CCCC2)CCC(=O)N3C)c(OC)c1 [compound 169, 4-(9-Cyclopentyl-5-methyl-6-oxo-6,7,8,9-tetrahydro-5H-pyrimido[4,5-b][1,4]diazepin-2-ylamino)-3,N-dimethoxy-benzamide]"
13,< 100,"CCN(CC)CCNC(=O)c1ccc(Nc2ncc3c(n2)N(C2CCCC2)CC2(CC2)C(=O)N3C)c(OC)c1 [compound 182, 4-(9-Cyclopentyl-5-methyl-6-oxo-6,7,8,9-tetrahydro-5H-spiro[pyrimido[4,5-b][1,4]diazepin-3,1′-cyclopropane]-2-ylamino)-N-(2-diethylamino-ethyl)-3-methoxy-benzamide]"
14,< 100,COc1cc(C(=O)NCCCN(C)C)ccc1Nc1ncc2c(n1)N(C1CCCC1)CC1(CC1)C(=O)N2C [compound 183]
15,< 100,"COc1cc(C(=O)NCCCCO)ccc1Nc1ncc2c(n1)N(C1CCCC1)CC1(CC1)C(=O)N2C [compound 185, 4-(9-Cyclopentyl-5-methyl-6-oxo-6,7,8,9-tetrahydro-5H-spiro[pyrimido[4,5-b][1,4]diazepin-3,1′-cyclopropane]-2-ylamino)- -N-(4-hydroxy-butyl)-3-methoxy-benzamide]"
16,< 100,"COc1cc(C(=O)NC2CCCN(C)C2)ccc1Nc1ncc2c(n1)N(C1CCCC1)CC1(CC1)C(=O)N2C (centres unmarked) [compound 187, 4-(9-Cyclopentyl-5-methyl-6-oxo-6,7,8,9-tetrahydro-5H-spiro[pyrimido[4,5-b][1,4]diazepin-3,1-cyclopropane]-2-ylamino)-3-methoxy-N-(1-methyl-piperidin-3-yl)-benzamide]"
17,< 100,"COc1cc(C(=O)NCCO)ccc1Nc1ncc2c(n1)N(C1CCCC1)CC1(CC1)C(=O)N2C [compound 188, 4-(9-Cyclopentyl-5-methyl-6-oxo-6,7,8,9-tetrahydro-5H-spiro[pyrimido[4,5-b][1,4]diazepin-3,1′-cyclopropane]-2-ylamino)-N-(2-hydroxy-ethyl)-3-methoxy-benzamide]"
18,< 100,"COc1cc(C(=O)NCCOCCO)ccc1Nc1ncc2c(n1)N(C1CCCC1)CC1(CC1)C(=O)N2C [compound 189, 4-(9-Cyclopentyl-5-methyl-6-oxo-6,7,8,9-tetrahydro-5H-spiro[pyrimido[4,5-b][1,4]diazepin-3,1′-cyclopropane]-2-ylamino)-N-[2-(2-hydroxy-ethoxy)-ethyl]-3-methoxy-benzamide]"
19,< 100,"CONC(=O)c1ccc(Nc2ncc3c(n2)N(C2CCCC2)CC2(CC2)C(=O)N3C)c(OC)c1 [compound 190, 4-(9-Cyclopentyl-5-methyl-6-oxo-6,7,8,9-tetrahydro-5H-spiro[pyrimido[4,5-b][1,4]diazepin-3,1′-cyclopropane]-2-ylamino)-3,N-dimethoxy-benzamide]"
20,< 10000,"CN1C(=O)CCN(C2CCCC2)c2nc(NC(=O)c3ccccc3)ncc21 [compound 193, N-(9-Cyclopentyl-5-methyl-6-oxo-6,7,8,9-tetrahydro-5H-pyrimido[4,5-b][1,4]diazepin-2-yl)-benzamide]"
21,< 100,COc1cc(C(=O)NCC2CCN(C)CC2)ccc1Nc1ncc2c(n1)N(C1CCCC1)CC(C)(C)C(=O)N2C [compound 196]
22,< 100,"COc1cc(C(=O)NC2CCN(Cc3ccccc3)CC2)ccc1Nc1ncc2c(n1)N(C1CCCC1)CC(C)(C)C(=O)N2C [compound 197, N-(1-Benzyl-piperidin-4-yl)-4-(9-cyclopentyl-5,7,7-trimethyl-6-oxo-6,7,8,9-tetrahydro-5H-pyrimido[4,5-b][1,4]diazepin-2-ylamino)-3-methoxy-benzamide]"
23,< 1000,"COCCNC(=O)c1ccc(Nc2ncc3c(n2)N(C2CCCC2)CC(C)(C)C(=O)N3C)c(OC)c1 [compound 198, 4-(9-Cyclopentyl-5,7,7-trimethyl-6-oxo-6,7,8,9-tetrahydro-5H-pyrimido[4,5-b][1,4]diazepin-2-ylamino)-3-methoxy-N-(2-methoxy-ethyl)-benzamide]"
24,< 100,"COc1cc(C(=O)NCc2ccncc2)ccc1Nc1ncc2c(n1)N(C1CCCC1)CC(C)(C)C(=O)N2C [compound 199, 4-(9-Cyclopentyl-5,7,7-trimethyl-6-oxo-6,7,8,9-tetrahydro-5H-pyrimido[4,5-b][1,4]diazepin-2-ylamino)-3-methoxy-N-pyridin-4-yl-ylmethyl-benzamide]"
25,< 100,"COc1cc(C(=O)NCCc2c[nH]cn2)ccc1Nc1ncc2c(n1)N(C1CCCC1)CC(C)(C)C(=O)N2C [compound 200, 4-(9-Cyclopentyl-5,7,7-trimethyl-6-oxo-6,7,8,9-tetrahydro-5H-pyrimido[4,5-b][1,4]diazepin-2-ylamino)-N-[2-(1H-imidazol-4-yl)-ethyl]-3-methoxy-benzamide]"
26,< 100,"COc1cc(C(=O)NCc2ccco2)ccc1Nc1ncc2c(n1)N(C1CCCC1)CC(C)(C)C(=O)N2C [compound 201, 4-(9-Cyclopentyl-5,7,7-trimethyl-6-oxo-6,7,8,9-tetrahydro-5H-pyrimido[4,5-b][1,4]diazepin-2-ylamino)-N-furan-2-ylmethyl-3-methoxy-benzamide]"
27,< 100,"COc1cc(C(=O)NCC2CCCCN2C)ccc1Nc1ncc2c(n1)N(C1CCCC1)CCC(=O)N2C (centres unmarked) [compound 202, 4-(9-Cyclopentyl-5-methyl-6-oxo-6,7,8,9-tetrahydro-5H-pyrimido[4,5-b][1,4]diazepin-2-ylamino)-3-methoxy-N-(1-methyl-piperidin-2-ylmethyl)-benzamide]"
28,< 1000,"COc1cc(C(=O)NCCN2CCOCC2)ccc1Nc1ncc2c(n1)N(C1CCCC1)CCC(=O)N2C [compound 203, 4-(9-Cyclopentyl-5-methyl-6-oxo-6,7,8,9-tetrahydro-5H-pyrimido[4,5-b][1,4]diazepin-2-ylamino)-3-methoxy-N-(2-morpholin-4-yl-ethyl)-benzamide]"

row,SMILES,IC50 [nM]
1,"COc1cc(C(=O)NC2CN3CCC2CC3)ccc1Nc1ncc2c(n1)N(C1CCCC1)CCC(=O)N2C (centres unmarked) [compound 161, N-(1-Aza-bicyclo[2.2.2]oct-3-yl)-4-(9-cyclopentyl-5-methyl-6-oxo-6,7,8,9-tetrahydro-5H-pyrimido[4,5-b][1,4]diazepin-2-ylamino)-3-methoxy-benzamide]",< 100
